In US12636352B2, “Functionalized enzyme-powered nanomotors” (FUNDACIO INSTITUT DE BIOENGINYERIA DE CATALUNYA, priority 2018, dated 2026):
Where two headings read alike, the source gives them in different places.

Tests used:
[1] = system: Human urinary bladder transitional cell papilloma RT4 cells
Protocol: 3D Cell Culture: Human urinary bladder transitional cell papilloma RT4 cells were cultured in McCoy's 5A (Modified) Medium, supplemented with FBS (10%) and penicillin-streptomycin solution (1%), in a 37° C. and 5% CO2 atmosphere. The cells were split every 4 days at a 1:2 ratio. To obtain 3D RT4 cell cultures, 8-well ibidi dishes were pre-coated with 23 μL of Matrigel™ (5 mg/mL) and incubated at 37° C. for 30 minutes, allowing the gel to form. Next, 30 μL of a suspension of RT4 cells at a density of 5×10^6 cells/mL was spread evenly in each well and the dishes were incubated for 30 minutes at 37° C. Finally, 150 μL of RT4 McCoy's medium containing 10% of Matrigel™ was added. The cultures were allowed to grow for 7 days before the experiments, changing the medium every 2 days.
Cytotoxicity Assays: The viability of RT4 3D cultures was quantified using the Alamar Blue assay and visualized using the LIVE/DEAD viability kit following manufacturer's instructions. […] After, the cultures were washed with medium, kept resting for 24 hours and viability was investigated according to manufacturer's instructions.
The spheroids were obtained by seeding RT4 cells in dishes coated with Matrigel™ which resembles the extracellular matrix and provides a 3D environment for cell growth. Then, the cultures were allowed to proliferate for 7 days and spheroid growth was monitored every day. […] After that, the cultures were washed with medium and cell viability and proliferation was assessed using the Alamar Blue assay.
It was further investigated the viability of the spheroids when exposed to the nanomotors (MSNP-Ur/PEG), under a range of concentrations of urea and at different incubation periods. The spheroids were incubated with 12.5 μg/mL of bare nanomotors or antibody-modified nanomotors at 0 mM, 25 mM, 30 mM and 40 mM of urea, for 1, 2 and 4 hours. Next, the cultures were thoroughly washed with medium to remove nanomotors and uncatalyzed urea and kept for 24 hours before analysis. The effect of the nanomotors on bladder cancer spheroids' viability was visualized using the LIVE/DEAD® viability kit and quantified using the Alamar Blue assay (FIG. 3).

[2] = FRET/Cy3 imaging of DNA-switch micromotors by confocal laser scanning microscopy; details: micromotors in PBS, pH 5 or pH 9
Protocol: To test the functionality of the switch once conjugated to the micromotors, FRET efficiency was monitored through a Leica-SP5 confocal laser scanning microscope (CSLM) equipped with a 63× oil immersion objective (FIG. 6B). For this, micromotors were suspended in PBS either at pH 5 or pH 9 and placed in a 8-well glass bottom dish for their analysis under CSLM. The emission of the donor (Cy3) was recorded using a 564 nm diode laser. The FRET image was obtained by exciting the Cy3 fluorophore and detecting the acceptor (Cy5) emission. Using a custom-made ImageJ plug-in, quantification of the FRET efficiency was achieved by calculating the FRET/Cy3 ratio.
The capability of micromotors to simultaneously record local pH changes produced while they are self-propelling was assessed by combining both optical tracking and FRET imaging using CSLM, where 25 s videos were recorded at 3FPS. In the absence of fuel, a mean FRET/Cy3 ratio of 1.8±0.09 (mean±standard error of the mean) was observed.
To gain insights into the instantaneous pH change around the micromotors from the initial moment of the reaction, micromotors were immobilized onto a glass surface using APTES as a coating agent to provide positive surface charges and stabilize the electrostatic interactions with the negatively charged micromotors. […]

[3] = Fluorescence (ratiometric FRET) pH titration of DNA switch in solution; details: 50 nM DNA switch
Protocol: Fluorescence measurements were carried out on a Cary Eclipse Fluorimeter (Varian), setting excitation wavelength to λex=530 nm (slitex=5 nm) and acquisition between 540 and 700 nm (slitem=5 nm) using quartz cuvettes of reduced volume (100 μL). All measurements were performed at T=25° C. in 10 mM HEPES. Switches were first diluted in HEPES 10 mM at the concentration of 1 μM. […]
The ratiometric FRET has been calculated as following:
Where FCyS is the maximum fluorescence emission of Cy5 (λem=670 nm) and FCy3 is the maximum fluorescence emission of Cy3 (λem=570 nm). The pH titration curves were obtained by plotting Rat. FRET vs hydronium ions concentration, and fitting the data with the following Langmuir-type equation: […]
Where Rat. FRETTRIPLEX and Rat. FRETDUPLEX represent the FRET signal of the switch in the triplex state (closed) and duplex state (open), respectively and where [H^+] represents the total concentration of hydrogen ions and
As a note, fluorophores employed here are not sensitive to pH in the range of pHs investigated (from pH 5.0 to pH 9.5) to avoid any interferences in the signal. It is important to note that this class of triplex-based switches show opening/closing kinetics sufficiently fast to allow the real time monitoring of pH variation (average time constant ˜100 ms).

## NC(N)=O [Urea, urea]
[1]
  spheroid viability (biocompatibility): not affecting spheroid viability

## N [ammonia]
[1]; 20 mM ammonia
  spheroid viability: > 70%
[1]; 24 hours incubation, range of concentrations
  spheroid viability (biocompatibility): increased cytotoxic trend with increasing concentrations
[1]; 24 hours, all ammonia concentrations tested
  spheroid viability: > 70%

## control switch: non-pH responsive hairpin DNA, SEQ ID NO: 3, Cy3/Cy5 labelled; tested conjugated to micromotors (DNA TCCTTGTCTGTCTGTCTGTCTGAACGTTTTTCGTTC; DNA, backbone not given here; further chemistry not fully specified)
[2]
  FRET/Cy3 emission of switch-modified micromotors at different pH: no significant differences

B1: DNA switch: triplex-forming single stranded DNA, SEQ ID NO: 1, labelled with Cy3 and Cy5 (nucleic acid)
DNA: TCCTTGTCTGTCTGTCTGTCTTTTTTGAAGAAGGAATTTATTCCTTCTTCGTTTGCTTCTTCCTT
modifications: DNA, backbone not given here; Cy3 and Cy5 labels, further chemistry not fully specified
[3]; acidic pH values
  FRET efficiency: high FRET efficiency
[3]; pH of the solution increased (pH 5.0 to 9.5)
  FRET signal: gradual decrease
